Experimental data: patent US5830885A, “Antiproliferative vitamin D3 hybrids” (The Johns Hopkins University, priority 1996, dated 1998)
Where “and” joins values, the source holds several entries; their conditions need not be identical. Equal values may be shown once. Entries after “also recorded” stand apart in the source; their conditions may differ. Values belong to the compound of their own block, whether it stands above or below them.

Assays:
calf thymus VDR = molecular target: T1, calf thymus VDR (Bos taurus, UniProt Q28037); test: VDR binding assay, displacement of [^3 H]-1,25(OH)2 D3 from VDR; conditions: for binding to the 1,25(OH)2-vitamin D3 receptor (VDR), % of calcitriol's binding / VDR binding affinity relative to that of calcitriol: relative to calcitriol; for Amount Bound (amount that results in 50% displacement of [^3 H]-1,25(OH)2 D3 from VDR): Table 6, calf thymus VDR; for times less strongly bound to VDR than 1,25(OH)2 D3: relative to 1,25(OH)2 D3
T1 construct: from the calf thymus VDR; from tissue; host or cells: calf thymus
T1 sequence (Q28037 1-426): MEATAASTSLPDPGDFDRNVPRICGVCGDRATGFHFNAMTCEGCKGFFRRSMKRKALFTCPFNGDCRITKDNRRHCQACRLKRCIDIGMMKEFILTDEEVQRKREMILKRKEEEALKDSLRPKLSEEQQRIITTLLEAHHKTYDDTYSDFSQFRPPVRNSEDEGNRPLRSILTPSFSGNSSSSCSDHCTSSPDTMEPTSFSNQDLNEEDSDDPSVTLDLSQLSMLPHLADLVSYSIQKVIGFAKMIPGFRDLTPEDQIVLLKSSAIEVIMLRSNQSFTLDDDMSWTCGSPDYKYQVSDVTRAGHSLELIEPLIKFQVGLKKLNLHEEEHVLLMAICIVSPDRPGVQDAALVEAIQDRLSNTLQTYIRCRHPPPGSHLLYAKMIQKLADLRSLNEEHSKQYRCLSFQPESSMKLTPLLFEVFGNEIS
Method: The VDR binding assay was performed according to the procedure of Reinhardt, T. A., Horst, R. L., Orf, J. W., Hollis, B. W., J. Clin. Endocrin. Metab., 58: 91-98 (1984), the entire contents of which are hereby incorporated herein by reference.

[1] = Solubility in organic solvents; type: physicochemical; conditions: methylene chloride, chloroform, methanol; for YA/YB also EtOAc, acetone
cell proliferation = test: Anti-proliferative activity (summary statements); type: cell-based; conditions: compared with calcitriol or in general words
[2] = Crystallization behaviour; type: physicochemical
keratinocyte = test: Dose-response effects on keratinocyte proliferation (FIGS. 3, 4, 9, 10); type: cell-based; conditions: cell numbers at 0 and 96 hours
Method: N0 represents the number of cells at zero hours and N1 represents the number of cells at 96 hours.

calcium channels = test: Calcium channel opening assay; type: cell-based; conditions: Bay K 1 μM, in the experiments of each compound's line
[3] = tested on: murine keratinocyte cells (cell line PE); test: Growth inhibition of PE keratinocytes (MTT assay); type: cell-based; conditions: for inhibition of proliferation of PE cells: FIG. 7
Method: (§1) The compounds were tested for growth inhibition of murine keratinocyte cells (cell line PE) and for the inhibition of TPA-induced ornithine decarboxylase (ODC) activity.
The PE cell line culture medium used in the tests consisted of Eagle's minimal essential medium without calcium chloride supplemented with 8% chelexed fetal calf serum and 1% antibiotic-antimycotic and the addition of CaCl2 to 0.05 mM Ca^++.
PE cells were seeded at a density of 5,000 cells/well in 50 μl medium into 96-well microtiter plates. […] The plates were fed once at 48 hours, with the re addition of the vitamin D3 analogues at this time. At 24 hour intervals following the initial treatment of the cells with compounds, 0.1 mg ([…] of a 2 mg/ml solution) of MTT was added to the plates. After 4 hours, the MTT was removed and DMSO added to dissolve the blue formazan dye. Using a microtiter plate reader, the A505 was then determined and cell number calculated from blank-subtracted absorbance values.

HL-60 cells = test: Growth inhibition of HL-60 cells; type: cell-based; conditions: FIG. 8; YA and YB 10^-7 M, others 10^-6 M
Source text: YA and YB were at concentrations of 10^-7 M; the other compounds were at concentrations of 10^-6 M.

[4] = in vivo; cited from earlier work
[5] = tested on: Human lymphoma cells U 937; conditions: relative to calcitriol = 1; cited from earlier work
[6] = tested on: Human lymphoma cells U 937; conditions: relative to calcitriol = 1; cited from earlier work; remark: listed apart in the source
Lewis rats = conditions: relative to calcitriol = 1; cited from earlier work
[7] = tested on: ornithine decarboxylase (ODC); test: Inhibition of TPA-induced ornithine decarboxylase (ODC) activity in PE cells; type: cell-based, murine; conditions: 1 μM, 15 minutes pretreatment, p<0.001
Method: as §1
The cell line PE was derived from a papilloma induced in female SENCAR mice by a standard skin initiation/promotion protocol (Carcinogenesis, 7:949-958 (1986), the entire contents of which are hereby incorporated by reference) and was chosen for its particular sensitivity to the induction of ornithine decarboxylase (ODC) activity by the extensively characterized tumor promoter TPA. The PE cell line culture medium used in the tests consisted of Eagle's minimal essential medium without calcium chloride supplemented with 8% chelexed fetal calf serum and 1% antibiotic-antimycotic and the addition of CaCl2 to 0.05 mM Ca^++.
100 cm^2 dishes of PE cells were treated with vitamin D3 or analogues dissolved in DMSO by direct addition into the culture medium. Fifteen minutes later, the plates were treated with 100 ng/ml TPA dissolved in ethanol. […]
Cytosolic ODC activity was determined in triplicate by measuring the release of ^14 CO2 from L-[^14 C]ornithine using an Eppendorf microvessel assay as previously described (Cancer Res., 43:2555-2559 (1983), the entire contents of which are hereby incorporated by reference).

U 937 cancer cells [8] = test: Induction of cell differentiation in U 937 cancer cells (Table 5); type: cell-based, human; conditions: at a concentration of 10^-8 M
U 937 cancer cells [9] = test: Viability of U 937 cancer cells (Table 5); type: cell-based; conditions: Homo sapiens
[10] = tested on: ornithine decarboxylase (ODC); conditions: literature; cited from earlier work

SMILES: COC(=O)C1=C(C)NC(C)=C([N+](=O)[O-])C1c1ccccc1C(F)(F)F (stereo not shown) [Bay K, reference compound]
Average peak shift compared to control (calcium channels): 28.3 ± 5.6 mV and 29.0 ± 1.4 mV and 26.3 ± 4.5 mV and 27.9 ± 5.3 mV

SMILES: C=C1/C(=C\C=C2/CCC[C@]3(C)C([C@H](C)CC#CC(C)(C)O)=CC[C@@H]23)C[C@@H](O)C[C@@H]1CO [JK III 7-1]
effect on keratinocyte proliferation (keratinocyte): appears ineffective in reducing cell proliferation

SMILES: C=C1/C(=C\C=C2/CCC[C@]3(C)[C@@H]([C@@H](C)CSc4cccc(C(C)(C)O)c4)CC[C@@H]23)C[C@H](O)C[C@H]1CO [JK 277-2]
inhibition of proliferation of PE cells [3]: inhibited proliferation of PE cells; also recorded: at much lower concentrations than their corresponding 1α,3β-stereoisomers
Amount Bound (amount that results in 50% displacement of [^3 H]-1,25(OH)2 D3 from VDR) (calf thymus VDR): 40 ng
times less strongly bound to VDR than 1,25(OH)2 D3 (calf thymus VDR): ~3750 times
VDR binding affinity relative to that of calcitriol (calf thymus VDR): less than 10^-3
inhibition of growth of HL-60 cells (HL-60 cells): even more effective than YB in inhibiting growth

SMILES: C=C1/C(=C\C=C2/CCC[C@]3(C)C([C@H](C)CC#CC(C)(C)O)=CC[C@@H]23)C[C@H](O)C[C@H]1CO [JK III 7-2]
VDR binding affinity relative to that of calcitriol (calf thymus VDR): ~ 10^-3
effect on keratinocyte proliferation (keratinocyte): equal to or greater than calcitriol
anti-proliferative activity (cell proliferation): comparable to that of calcitriol

SMILES: C=C1/C(=C\C=C2/CCC[C@]3(C)[C@@H]([C@@H](C)CSc4cccc(C(C)(C)O)c4)CC[C@@H]23)C[C@@H](O)C[C@@H]1CO [JK 277-1]
inhibition of proliferation of PE cells [3]: inhibited proliferation of PE cells
Amount Bound (amount that results in 50% displacement of [^3 H]-1,25(OH)2 D3 from VDR) (calf thymus VDR): 1450 ng
VDR binding affinity relative to that of calcitriol (calf thymus VDR): less than 10^-3
inhibition of growth of HL-60 cells (HL-60 cells): more modest effect

SMILES: C=C1/C(=C\C=C2/CCC[C@]3(C)[C@@H]([C@@H](C)CSc4cccc(C(C)(C)O)c4)CC[C@@H]23)C[C@@H](O)C[C@@H]1O [GS 1500]
serum half-life [4]: very short serum half-life

SMILES: C=C1/C(=C\C=C2/CCC[C@]3(C)[C@@H]([C@H](C)/C=C/[C@@H](O)C4CC4)CC[C@@H]23)C[C@@H](O)C[C@@H]1O [Mc-903 (Calcipotriol)]
Relative Potency, Inhibition of Proliferation [5]: 1.3
Relative Potency, Induction of Differentiation [6]: 1
Relative Potency, Calcemic Effects (Lewis rats): < 0.01

SMILES: C=C1/C(=C\C=C2/CCC[C@]3(C)[C@@H]([C@H](C)/C=C/C=C/C(O)(CC)CC)CC[C@@H]23)C[C@@H](O)C[C@@H]1O [EB1089]
Relative Potency, Inhibition of Proliferation [5]: 68
Relative Potency, Induction of Differentiation [6]: 67
Relative Potency, Calcemic Effects (Lewis rats): 0.4

SMILES: C=C1/C(=C\C=C2/CCC[C@]3(C)[C@@H]([C@H](C)CCCC(C)(C)O)CC[C@@H]23)C[C@@H](O)C[C@@H]1O [Calcitriol, 1α,25-dihydroxyvitamin D3, reference compound]
growth inhibition of PE cells, comparison of potency ([3]; calcitriol vs 1-hydroxymethyl derivatives): equipotent at inhibiting growth of PE cells
inhibition of TPA-induced ODC activity [7]: significantly inhibited the effects of TPA
inhibition of TPA-induced ODC activity ([7]; listed as calcitriol): statistically significant reduction in TPA-induced ODC activity
inducing cell differentiation (in words) (U 937 cancer cells [8]): effective in inducing cell differentiation
viability at 0.1 µM (U 937 cancer cells [9]): 99%
inhibition of TPA effects on ODC induction as well as TPA-stimulated tumor promotion [10]: shown to inhibit TPA effects on ODC induction

SMILES: C=C1/C(=C\C=C2/CCC[C@]3(C)[C@@H]([C@@H](C)COCCCC(C)(C)O)CC[C@@H]23)C[C@H](O)C[C@H]1CO [JK 276-2]
inhibition of proliferation of PE cells [3]: inhibited proliferation of PE cells; also recorded: at much lower concentrations than their corresponding 1α,3β-stereoisomers
Amount Bound (amount that results in 50% displacement of [^3 H]-1,25(OH)2 D3 from VDR) (calf thymus VDR): 22.5 ng
times less strongly bound to VDR than 1,25(OH)2 D3 (calf thymus VDR): about 1500 times
VDR binding affinity relative to that of calcitriol (calf thymus VDR): less than 10^-3
inhibition of growth of HL-60 cells (HL-60 cells): even more effective than YB in inhibiting growth

The next lines start with results.

binding to the 1,25(OH)2-vitamin D3 receptor (VDR), % of calcitriol's binding (calf thymus VDR): ≤ 2%
ease of crystallization [2]: easily crystallized
SMILES: C=C1/C(=C\C=C2/CCC[C@]3(C)[C@@H]([C@H](C)CCCC(C)(C)O)CC[C@@H]23)C[C@@H](O)C[C@@H]1CO [(-)-2, 1α-hydroxymethyl-25-hydroxyvitamin D3]
solubility in organic solvents [1]: unexpectedly poor solubility; also recorded: only sparingly soluble
anti-proliferative activity (cell proliferation): did not change the anti- proliferative or cell growth inhibitory activity

VDR binding affinity relative to that of calcitriol (calf thymus VDR): ~ 10^-3
SMILES: C=C1/C(=C\C=C2/CCC[C@]3(C)[C@@H]([C@@H](C)OCCCC(O)(CC)CC)CC[C@@H]23)C[C@H](O)C[C@H]1CCF [RHH 045 B, 1α- and 1β-(2-Fluoroethyl)-25-hydroxyvitamin D3 Homologs]
effect on keratinocyte proliferation (keratinocyte): far more effective in inhibiting cell proliferation
anti-proliferative activity (cell proliferation): comparable to that of calcitriol

Amount Bound (amount that results in 50% displacement of [^3 H]-1,25(OH)2 D3 from VDR) (calf thymus VDR): 1650 ng
VDR binding affinity relative to that of calcitriol (calf thymus VDR): less than 10^-3
SMILES: C=C1/C(=C\C=C2/CCC[C@]3(C)[C@@H]([C@@H](C)COCCCC(C)(C)O)CC[C@@H]23)C[C@@H](O)C[C@@H]1CO [JK 276-1]
inhibition of proliferation of PE cells [3]: inhibited proliferation of PE cells
inhibition of growth of HL-60 cells (HL-60 cells): more modest effect

binding to the 1,25(OH)2-vitamin D3 receptor (VDR), % of calcitriol's binding (calf thymus VDR): ≤ 2%
ease of crystallization [2]: very difficult to crystallize
SMILES: C=C1/C(=C\C=C2/CCC[C@]3(C)[C@@H]([C@H](C)CCCC(C)(C)O)CC[C@@H]23)C[C@H](O)C[C@H]1CO [(+)-3, 1β-hydroxymethyl-3β-norhydroxy-3α, 25-dihydroxyvitamin D3]
anti-proliferative activity (cell proliferation): did not change the anti- proliferative or cell growth inhibitory activity

VDR binding affinity relative to that of calcitriol (calf thymus VDR): ~ 10^-3
SMILES: C=C1/C(=C\C=C2/CCC[C@]3(C)[C@@H]([C@H](C)/C=C/C=C/C(O)(CC)CC)CC[C@@H]23)C[C@H](O)C[C@H]1CO [MCW 068-Y-EE]
effect on keratinocyte proliferation (keratinocyte): much greater anti proliferative activity than MCW 068-Y-ED
anti-proliferative activity (cell proliferation): comparable to that of calcitriol
